# Legend:
# [1] = system: rgRSV224 virus; assay: Antiviral activity: inhibition of rgRSV224 (GFP-expressing RSV) replication in HeLa cells, GFP expression read-out; type: cell-based, respiratory syncytial virus (RSV); conditions: for RSV HELA pEC50: rgRSV224 virus (MOI=1) in HeLa cells, GFP read-out; for EC50: human respiratory syncytial virus, HeLa, read-out: RSV HELA pEC50, rgRSV224 virus (MOI=1) in HeLa cells, GFP read-out (converted)
# Summary of the method: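 HeLa cells (3,000/well) were infected with GFP-expressing rgRSV224 (MOI=1) in the presence of 9 serial 4-fold compound dilutions (0.05% DMSO) and incubated at 37° C, 5% CO2. After three days, GFP expression was measured by laser microscopy. EC50 is the concentration giving 50% inhibition of GFP expression.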
# [2] = system: HeLa cells; assay: Cytotoxicity in HeLa cells, ATP content measured with the ATPlite kit; type: cell-based
# [3] = Cytotoxicity in HeLa cells, ATP content measured with the ATPlite kit; type: cell-based; conditions: human, TOX HELA pCC50
Structure (SMILES),RSV HELA pEC50 [1],TOX HELA pCC50 [2],melting point,EC50 [1],CC50 at 3 days [3]
CNc1cc(C(=O)N2CCc3ccccc3C2C)nc2cc(-c3ccc(/C=C/C(=O)O)cc3F)nn12 (centres unmarked) [Compound M8],7.31,<4.60,,,
CC(C)Cc1cc(C(=O)N2CCCCC[C@H]2C)nc2cc(-c3ccc(-n4cc(C(=O)O)cn4)cc3F)nn12 [Compound W13],7.45,4.38,,,
CCc1cc(C(=O)N2CCCCC[C@H]2C)nc2cc(-c3cccc(/C=C\C(=O)O)c3F)nn12 [Compound M31],6.13,<4,,,
CCc1cc(C(=O)N2CCn3cccc3C2C)nc2cc(-c3cccc(/C=C/C(=O)O)c3F)nn12 (centres unmarked) [Compound M45],7.54,<4,,,
CCc1cc(C(=O)N2CCn3c(C)ccc3C2C)nc2cc(-c3ccc(C(N)=O)cc3F)nn12 (centres unmarked) [Compound I36],6.58,<4.60,,,
CCc1cc(C(=O)N2CCc3ccccc3C2C)nc2cc(-c3cc4cccnc4cc3F)nn12 (centres unmarked) [Compound A31],6.20,<4.60,,,
CCc1cc(C(=O)N2CCCCC[C@H]2C)nc2cc(-c3ccc(-c4nc(C(=O)O)ccc4F)cc3F)nn12 [Compound F20],7.07,4.30,,,
CC1c2ccsc2CCN1C(=O)c1cc(C2(C)CC2)n2nc(-c3cccc(/C=C/C(=O)O)c3F)cc2n1 (centres unmarked) [Compound M47],7.87,4.07,,,
CCc1cc(C(=O)N2CCCCCC2C)nc2cc(-c3ccc(N(C)C)cc3)nn12 (centres unmarked) [Compound A2],5.52,<4.60,,,
C[C@@H]1CCCCCN1C(=O)c1cc(C2CC2)n2nc(-c3ccc(/C=C/C(=O)O)cc3F)cc2n1 [Compound M21],7.16,4.34,,,
CCc1cc(C(=O)N2CCn3nccc3C2C)nc2cc(-c3ccc(C(N)=O)cc3F)nn12 (centres unmarked) [Compound I37],6.24,<4.60,,,
CCc1cc(C(=O)N2CCc3ccccc3[C@H]2C)nc2cc(-c3ccc(C4C[C@H]4C(=O)O)cc3F)nn12 (some centres unmarked) [Compound O15],7.91,4.32,,,
CCc1cc(C(=O)N2CCCCC[C@H]2C)nc2cc(-c3ccc(/C=C/C(=O)O)cc3F)nn12 [Compound M7],7.00,<4.60,,,
CCc1cc(C(=O)N2CCCCC[C@H]2C)nc2cc(-c3ccc4c(c3F)OCC(C(=O)O)C4)nn12 (some centres unmarked) [Compound F42],7.16,<4,,,
C[C@@H]1CCCCCN1C(=O)c1cc(C2(C)CC2)n2nc(-c3cccc(/C=C/C(=O)O)c3F)cc2n1 [Compound M22],7.34,4.05,,,
CCc1cc(C(=O)N2CCCCC[C@H]2C)nc2cc(-c3ccc4oc(C(=O)O)cc4c3F)nn12 [Compound F44],6.40,4.25,,,
CN1CCCCCN1C(=O)c1cc(C2(C)CC2)n2nc(-c3cccc(/C=C/C(=O)O)c3F)cc2n1 [Compound M37],7.10,<4,,,
CCc1cc(C(=O)N2CCCCC[C@H]2C)nc2cc(-c3ccc4c(c3F)C=C(C(=O)O)CO4)nn12 [Compound F46],7.31,<4,,,
CCc1cc(C(=O)N2CCCCC[C@H]2C)nc2cc(-c3ccc(OC)c(/C=C/C(=O)O)c3F)nn12 [Compound M34],7.04,<4,,,
CCc1cc(C(=O)N2CCCCCC2C)nc2cc(-c3ccc(N4C(=O)CCC4=O)cc3F)nn12 (centres unmarked) [Compound E26],,,190 to 195 °C,407 nM,> 25.1 µM
CCc1cc(C(=O)N2CCCCCC2C)nc2cc(-c3ccc(NC(=O)Cc4ccncc4)cc3)nn12 (centres unmarked) [Compound E23],,,232 to 234 °C,646 nM,> 25.1 µM
CCc1cc(C(=O)N2CCCCCC2C)nc2cc(-c3ccc(NS(C)(=O)=O)cc3F)nn12 (centres unmarked) [Compound D1],,,135 to 140 °C,288 nM,51.3 µM
C[C@@H]1CCCCCN1C(=O)c1cc(C2CC2)n2nc(-c3ccc(N4CC[C@H](C(=O)O)C4)cc3F)cc2n1 [Compound W51],,,203.3 °C,38.9 nM,69.2 µM
CCc1cc(C(=O)N2CCc3ccccc3[C@H]2C)nc2cc(-c3ccc(N4CC[C@H](C(=O)O)C4)cc3F)nn12 [Compound W28],,,218.99 °C,4.27 nM,51.3 µM

Structure (SMILES),RSV HELA pEC50 [1],TOX HELA pCC50 [2],melting point,EC50 [1],CC50 at 3 days [3]
"CC1c2ccsc2CCN1C(=O)c1cc(C2CC2)n2nc(-c3ccc(C4C[C@H]4C(=O)O)cc3F)cc2n1 (single isomer, unassigned) [Compound O20]",,,252.97 °C,8.13 nM,52.5 µM
C[C@@H]1CCCCCN1C(=O)c1cc(C2(C)CC2)n2nc(-c3ccc4cc(C(=O)O)c(=O)oc4c3F)cc2n1 (racemic) [Compound F49],,,218.14 °C,26.3 nM,57.5 µM
CCc1cc(C(=O)N2CCCCCC2C)nc2cc(-c3ccc(NC(=O)Nc4cccc(F)c4)cc3)nn12 (centres unmarked) [Compound B6],,,260 to 265 °C,741 nM,> 100 µM
CCc1cc(C(=O)N2CCCCCC2C)nc2cc(-c3ccc(NC(=O)NC4CC4)cc3)nn12 (centres unmarked) [Compound B8],,,240 to 245 °C,240 nM,17 µM
CCc1cc(C(=O)N2CCCCCC2C)nc2cc(-c3ccc(C(=O)NCCO)cc3F)nn12 (centres unmarked) [Compound L5],,,177 °C,158 nM,> 25.1 µM
CCc1cc(C(=O)N2CCCCC[C@H]2C)nc2cc(-c3ccc(N4CC[C@@H](C(=O)O)C4)cc3F)nn12 [Compound W6],,,214.84 °C,81.3 nM,69.2 µM
CCc1cc(C(=O)N2CCCCCC2C)nc2cc(-c3ccc(NC(=S)NC4CC4)cc3F)nn12 (centres unmarked) [Compound B14],,,220 to 222 °C,437 nM,> 25.1 µM
CCc1cc(C(=O)N2CC[C@@H]3CCCC[C@@H]3[C@H]2C)nc2cc(-c3ccc(/C=C/C(=O)O)cc3F)nn12 (racemic) [Compound M50],,,184.15 °C,191 nM,46.8 µM
CCc1cc(C(=O)N2CCCCCC2C)nc2cc(-c3ccc4[nH]cnc4c3)nn12 (centres unmarked) [Compound A13],,,145 to 150 °C,331 nM,> 25.1 µM
C[C@@H]1CCCCCN1C(=O)c1cc(N(C)C)n2nc(-c3ncc(/C=C/C(=O)O)cc3Cl)cc2n1 [Compound M12],,,197 to 199 °C,4070 nM,> 25.1 µM
CCc1cc(C(=O)N2CCCCCC2C)nc2cc(-c3ccc(N/C(=N/C#N)NCC4CCCO4)cc3F)nn12 (centres unmarked) [Compound B16],,,160 to 165 °C,589 nM,> 25.1 µM
CCc1cc(C(=O)N2CCCCCC2C)nc2cc(-c3ccc(NC(=O)CC4CCCCN(C)C4=O)cc3)nn12 (centres unmarked) [Compound E9],,,255 to 260 °C,170 nM,> 25.1 µM
CCc1cc(C(=O)N2CCCCCC2C)nc2cc(-c3ccc(NC(=O)C4CC4)cc3)nn12 (centres unmarked) [Compound E14],,,265 to 270 °C,309 nM,> 50.1 µM
CCc1cc(C(=O)N2CCc3sccc3C2C)nc2cc(-c3ccc(-c4ccc(C(=O)O)cn4)cc3F)nn12 (racemic) [Compound F60],,,270.54 °C,45.7 nM,> 25.1 µM
CCc1cc(C(=O)N2CCCCCCC2C)nc2cc(-c3ccc(NS(C)(=O)=O)cc3F)nn12 (centres unmarked) [Compound D3],,,195 to 200 °C,145 nM,> 25.1 µM
CCc1cc(C(=O)N2CCCCCC2C)nc2cc(-c3ccc4nc(C)ccc4c3)nn12 (centres unmarked) [Compound A12],,,195 to 200 °C,871 nM,> 25.1 µM
CCc1cc(C(=O)N2CCCCC[C@H]2C)nc2cc(-c3ccc(C(N)=O)cc3)nn12 [Compound A26],,,160 to 165 °C,195 nM,> 25.1 µM
CCc1cc(C(=O)N2CCc3sccc3[C@H]2C)nc2cc(-c3ccc(-n4cc(C(=O)O)cn4)cc3F)nn12 (racemic) [Compound W40],,,168.11 °C,21.9 nM,36.3 µM
CCc1cc(C(=O)N2Cc3ccccc3CC2C)nc2cc(-c3ccc(C(=O)O)cc3F)nn12 (centres unmarked) [Compound K3],,,150 to 155 °C,1100 nM,> 25.1 µM
C[C@@H]1CCCCCN1C(=O)c1cc(C2CC2)n2nc(-c3ccc(-n4cc(C(=O)O)cn4)cc3F)cc2n1 [Compound W8],,,232.32 °C,77.6 nM,55 µM
CCc1cc(C(=O)N2CCc3sccc3C2C)nc2cc(-c3cccc(/C=C/C(=O)O)c3F)nn12 (racemic) [Compound M48],,,255.5 °C,12.9 nM,> 25.1 µM
CC(C)=Cc1cc(C(=O)N2CCCCC[C@H]2C)nc2cc(-c3ccc(N4CC[C@H](C(=O)O)C4)cc3F)nn12 [Compound W15],,,189.89 °C,51.3 nM,57.5 µM
CCc1cc(C(=O)N2CCCCC[C@H]2C)nc2cc(-c3ccc(N(C)c4ccc(C(=O)O)cn4)cc3F)nn12 (racemic) [Compound W20],,,132 °C,355 nM,63.1 µM
CCc1cc(C(=O)N2CCCCCC2C)nc2cc(-c3ccc(NC(=O)CCC(N)=O)cc3F)nn12 (centres unmarked) [Compound E25],,,155 to 160 °C,61.7 nM,> 25.1 µM

# From patent publication US11084826B2, “RSV antiviral pyrazolo- and triazolo-pyrimidine compounds” (Janssen Sciences Ireland Unlimited Company, priority 2015, dated 2021)
